Laboratory results: US5229265A, “Process for analyzing clastogenic agents” (Litron Laboratories, priority 1990, dated 1993)
Where “and” joins values, the source holds several entries; their conditions need not be identical. Equal values may be shown once. Entries after “also recorded” stand apart in the source; their conditions may differ.

Test system: micronucleated cells in blood
Assay: Flow cytometric micronucleus assay, dual parameter data, MMS, Hoechst 33258 stain, per 500,000 cells
Assay type: in vivo, mouse
Description: The fixation procedure can affect the permeability of a cell, cell morphology and the amount of undesirable autofluorescence that is associated with a cell preparation. Fixing procedures can cause changes in cell structure (that are reflected in the light scatter patterns) as well as changes in the distribution of the dye molecules within the cells (resulting in altered fluorescence emission patterns). Practioners of the art are unaware that fixing the cells at ultralow temperatures circumvents these fixation problems and provides cells that are suitable for subsequent staining and FCM analysis. Initially, the cells are centrifuged in order to separate them from serum components which could aggregate when added to cold fixative. To fix cells, a fresh blood sample (25 μl) containing an anticogulant is suspended in a solution containing 1% BSA and 10% dimethylsulfoxide (DMSO) in PBS (2 ml). The cells are centrifuged at 500×g for five minutes at room temperature. The supernatant is discarded and the pellet is resuspended in the small amount of residual supernatant that remains. This cell suspension is cooled to 0° C., the cells are diluted further with cold (-70° C.) absolute methanol (2 ml) and it is incubated at -70° C. for five minutes. The cell suspension is then immediately diluted with 1% BSA in PBS (10 ml) and is centrifuged at 500×g for 5 minutes. The low temperature treatment yields fixed cells with good morphology as viewed with either inverted phase contrast microscopy or fluorescent microscopy. […] Cells fixed in this way can be stored at 0° C. for weeks with no significant deterioration and are ready for staining and MN analysis.
It is known to practioners in the art that a variety of fluorescent dyes can be used to stain the DNA and RNA of cells. […] By choosing proper concentrations of these two dyes in conjunction with 363 nm excitation wavelength, it is possible to obtain a blue fluorescence signal from the Hoechst 33258 labeled micronucleii. A red fluorescence signal can be obtained from propidium iodide labeled PCEs. […]

[1] = MMS 100 μg/g body weight IP at 0 and 48 hours, Hoechst 33258

Compound: COS(C)(=O)=O [MMS, methyl methanesulfonate]
- Mns (96 hr) [1]: 1654 MNs per 500,000 cells and 1424 MNs per 500,000 cells and 1360 MNs per 500,000 cells and 1662 MNs per 500,000 cells
- Δ (T96 - T0), change in MNs [1]: 713 MNs per 500,000 cells and 620 MNs per 500,000 cells and 512 MNs per 500,000 cells and 540 MNs per 500,000 cells and 596 ± 90 MNs per 500,000 cells
- change (Δ) in MNs versus control mice (MMS 100 μg/g body weight at 0 and 48 hours, 96 hr blood): significantly higher than the Δ values for the control mice; also recorded: increase in the number of MNs in the analysis area relative to the initial blood
